Read-outs that look alike come from different tables or passages of the source. One block for each compound: values may come before it.
Assays:
[1] = tested on: Salmonella enterica serovar typhimurium TA100; assay: Antimutagenicity assay (Salmonella/microsome), strain TA100 (co-, pre- and posttreatment); format: cell-based; settings: atorvastatin 0 μM
HepG2 cells [2] = tested on: HepG2 cells
Experimental: (§3) Human hepatocellular carcinoma cells (HepG2) obtained from the American Type Culture Collection (Manassas, VA) were cultured in a minimum Eagle's medium (MEM, Gibco®, USA) containing 10% fetal bovine serum (FBS) plus 100 μg/mL streptomycin and 100 μg/mL penicillin at 37°C in a 5% CO2 atmosphere. Logarithmic-phase cells were used in all the experiments [9].
The HepG2 cells were seeded at a density of 1 × 10^5/mL into 24-well plates (1 mL/well). […] DMSO 1% was used as the negative control. After exposure to the compounds, the cells were incubated for 24 h more and the cytogenetic studies were carried out in triplicate and N = 3 [14]. In order to determine the mitotic index and the number of cells with micronuclei, the medium was replaced by a cold methanol-glacial acetic acid (3 : 1) fixative for 30 min and the cells were then rinsed with distilled water for 2 min and air dried. […] To determine the mitotic index and the number of cells with micronuclei, 2000 cells per well (6000 cells per concentration) were analyzed using fluorescence microscopy (Reichert Univar) with an excitation wavelength of 350 nm. […] Statistical differences between the groups were analyzed by a one-way ANOVA (p < 0.01) and Tukey's post hoc test.

[3] = tested on: Salmonella enterica serovar typhimurium TA1535; assay: Antimutagenicity assay (Salmonella/microsome), strain TA1535; format: cell-based; settings: atorvastatin 0 μM
Text: (§1) Salmonella enterica serovar typhimurium (S. typhimurium) strains TA100, TA1535, TA104, and TA102 from the authors' laboratory stock were used as described by Maron and Ames in the antimutagenicity assay.
(§2) We carried out the coexposure protocol of the antimutagenicity assay to investigate the potential of the compound to protect against alkylation-mediated genetic mutation in S. typhimurium TA100, TA102, TA104, and TA1535 strains according to Ajith and Soja. The test proceeded both in the absence and presence of a metabolic activation system (4% S9 mix, Aroclor preinduced, from MOLTOX Inc., USA). DMSO 1% served as the negative control. […] The mixtures were incubated in a shaker at 37°C (preincubation) under light protection. After a total of 60 min of cotreatment, the mixtures were added to and mixed with 2 mL top agar containing 0.05 mmol/L L-histidine and D-biotin for the S. typhimurium strains. Each of these was then spread on a minimal glucose agar (1.5% agar, Vogel-Bonner medium E, containing 2% glucose) plate. After the top agar solidified, the plates were incubated at 37°C for 60–72 h. Each tester strain was assayed in triplicate and repeated at least twice, and the number of revertant colonies was counted for each tester strain and treatment group. The counts of revertant colonies were obtained to build a dose-response curve and calculate the percentage of reduction.

HepG2 cells [4] = assay: Flow cytometry cell cycle analysis; format: cell-based, Human; settings: 24 h
Experimental: The cells (1 × 10^5) were washed in PBS solution and centrifuged at 400 ×g for 5 min, and after, the cells were suspended in DNA staining solution (0.3% Triton X-100 and 50 μg/mL propidium iodide (PI) in a 43 mM citrate buffer), as previously described. After 45 minutes of treatment with 50 μg/mL ribonuclease A (Sigma, EUA), the PI fluorescence was determined (10,000 events per sample) in a Gallios flow cytometer (Beckman Coulter, USA). Data were analyzed by the Summit v4.3 software. The experiments were done at least three times, and statistical analysis was performed by one-way ANOVA followed by a Tukey's post hoc test.

[5] = tested on: Salmonella enterica serovar typhimurium TA102; assay: Antimutagenicity assay (Salmonella/microsome), strain TA102; format: cell-based; settings: atorvastatin 0 μM
Text: as §1, §2

in vitro = format: cell-based; settings: human, HepG2, 24 h of exposure
Experimental: as §3
Fresh HepG2 cells were seeded at a density of 1 × 10^5/well.

[6] = tested on: Salmonella enterica serovar typhimurium TA104; assay: Antimutagenicity assay (Salmonella/microsome), strain TA104; format: cell-based; settings: atorvastatin 0 μM
Text: as §1, §2

[7] = DPPH free radical scavenging assay; format: biochemical; settings: absorbance at 517 nm
Experimental: The free radical scavenging activity was measured by following microplate procedures as previously described. One hundred microliters of the sample dilutions with five concentration levels (varying from 0 to 2000 μM in DMSO) was added to two identical groups of wells in a 96-well microplate. The same volume of 0.1 mM DPPH-methanol solution was added to each well of one group (samples), and methanol ([…]) was added to the other group (blanks). The control was prepared by mixing the DPPH-methanol solution with the sample solvent or butylated hydroxytoluene (BHT). The solutions were mixed thoroughly, covered, and allowed to react in the dark at room temperature for 40 min. The absorbance was measured at 517 nm using a microplate reader (Quant, BioTek Instruments Inc.), and the scavenging activity was calculated from the absorbance values according to the following equation: […]. The antioxidant properties of the samples were expressed as half the maximal effective concentrations (EC50) obtained by interpolation from the linear regression analysis. BHT was used as the positive control.

CHO-K1 cells = tested on: CHO-K1 cells; set-up: method as in PMID 15988137; settings: statins from 10 μM to 100 μM; cited from earlier work
[8] = tested on: Salmonella enterica serovar typhimurium TA98 and TA100 strains; settings: sodium azide or 4-nitro-o-phenylenediamine, TA98 and TA100, absence of metabolic activation; cited from earlier work
[9] = TA100, cotreatment protocol, +S9, CPA (150 μM) only
[10] = TA100, posttreatment protocol, +S9, CPA (150 μM) only
[11] = TA100, pretreatment protocol, +S9, CPA (150 μM) only
[12] = TA100, cotreatment protocol, −S9, MMS (100 μM) only
[13] = TA100, posttreatment protocol, −S9, MMS (100 μM) only
[14] = TA100, pretreatment protocol, −S9, MMS (100 μM) only

SMILES: O=P1(N(CCCl)CCCl)NCCCO1 (stereo not drawn) [CPA, cyclophosphamide]
His+ (revertant colonies) [1, 9]: 239 ± 30 | MI (mutagenicity index) [1, 9]: 2.13 | His+ (revertant colonies) [1, 10]: 278 ± 33 | MI (mutagenicity index) [1, 10]: 2.66 | His+ (revertant colonies) [1, 11]: 244 ± 8 | MI (mutagenicity index) [1, 11]: 2.44 | Micronucleus formation, fold in comparison to the negative control (HepG2 cells [2]; 60.0 μM CPA only, 6 h and 24 h): 5-6 fold | His+ (revertant colonies) ([3]; TA1535, +S9, CPA (150 μM) only): 56 ± 6 | MI (mutagenicity index) ([3]; TA1535, +S9, CPA (150 μM) only): 2.80 | sub-G1 percentage of cells (HepG2 cells [4]; CPA only (no AVA)): 17% | polyploid subpopulation (HepG2 cells [4]; exposure just to CPA): 13% | His+ (revertant colonies) ([5]; TA102, +S9, CPA (150 μM) only): 588 ± 85 | MI (mutagenicity index) ([5]; TA102, +S9, CPA (150 μM) only): 2.1 | CC50 at 24 h (in vitro; read-out: LC50): 98.7 ± 11.5 µM | His+ (revertant colonies) ([6]; TA104, +S9, CPA (150 μM) only): 1092 ± 85 | MI (mutagenicity index) ([6]; TA104, +S9, CPA (150 μM) only): 2.40

SMILES: COS(C)(=O)=O [MMS, methyl methanesulfonate]
His+ (revertant colonies) [1, 12]: 212 ± 11 | MI (mutagenicity index) [1, 12]: 2.14 | His+ (revertant colonies) [1, 13]: 264 ± 31 | MI (mutagenicity index) [1, 13]: 2.09 | His+ (revertant colonies) [1, 14]: 230 ± 23 | MI (mutagenicity index) [1, 14]: 2.26 | Micronucleus formation, fold in comparison to the negative control (HepG2 cells [2]; only MMS-exposed cells (10.0 μM MMS), 6 and 24 h): 6-7 fold | His+ (revertant colonies) ([3]; TA1535, −S9, MMS (100 μM) only): 71 ± 5 | MI (mutagenicity index) ([3]; TA1535, −S9, MMS (100 μM) only): 2.84 | polyploid subpopulation (HepG2 cells [4]; human, 20 μM): 15% | sub-G1 percentage of cells (HepG2 cells [4]; human, 20 μM): 19% | His+ (revertant colonies) ([5]; TA102, −S9, MMS (100 μM) only): 578 ± 55 | MI (mutagenicity index) ([5]; TA102, −S9, MMS (100 μM) only): 2.31 | CC50 (in vitro; read-out: LC50 (the source's name)): 18.7 ± 6.67 µM | His+ (revertant colonies) ([6]; TA104, −S9, MMS (100 μM) only): 897 ± 55 | MI (mutagenicity index) ([6]; TA104, −S9, MMS (100 μM) only): 2.24

EC50 [7]: 83 ± 2 µM
SMILES: Cc1cc(C(C)(C)C)c(O)c(C(C)(C)C)c1 [BHT, butylated hydroxytoluene]

SMILES: CC[C@H](C)C(=O)O[C@H]1C[C@H](O)C=C2C=C[C@H](C)[C@H](CC[C@@H](O)C[C@@H](O)CC(=O)O)[C@H]21 [pravastatin]
Micronucleus formation after exposure to bleomycin (CHO-K1 cells): reduced micronucleus formation

SMILES: CC[C@H](C)C(=O)O[C@H]1C[C@@H](C)C=C2C=C[C@H](C)[C@H](CC[C@@H]3C[C@@H](O)CC(=O)O3)[C@H]21 [LOVA, lovastatin]
Antimutagenic (chemopreventive) effect against direct mutagens [8]: able to exert chemopreventive effects

SMILES: CC(C)n1c(/C=C/C(O)CC(O)CC(=O)O)c(-c2ccc(F)cc2)c2ccccc21 (stereo not drawn) [fluvastatin]
Micronucleus formation after exposure to bleomycin (CHO-K1 cells): reduced micronucleus formation

From publication PMC5903342 (Oxidative Medicine and Cellular Longevity, 2018)
